Measured values as given in publication PMC5218480 (PLoS ONE, 2017).

Test system: MV-4-11 cells
Test: Gene expression microarray analysis (Affymetrix PrimeView) and GSEA
Type: cell-based, human
Set-up: RFU PODN (11730768_x_at) / Fold change /veh PODN (11730768_x_at) / RFU LINC00158 (11744669_a_at) / Fold change /veh LINC00158 (11744669_a_at) / RFU DUSP10 (11751237_a_at) / Fold change /veh DUSP10 (11751237_a_at) / RFU ID3 (11757404_x_at) / Fold change /veh ID3 (11757404_x_at) / RFU PLEKHG5 (11737974_s_at) / Fold change /veh PLEKHG5 (11737974_s_at) / RFU LRRC4B (11730491_at) / Fold change /veh LRRC4B (11730491_at) / RFU GIMAP4 (11747438_a_at) / Fold change /veh GIMAP4 (11747438_a_at) / RFU KRT8 (11758183_x_at) / Fold change /veh KRT8 (11758183_x_at) / RFU CNN1 (11734310_a_at) / Fold change /veh CNN1 (11734310_a_at) / RFU VPS37D (11726825_at) / Fold change /veh VPS37D (11726825_at) / RFU C10orf10 (11716522_x_at) / Fold change /veh C10orf10 (11716522_x_at) / RFU KIR2DL2 /// KIR2DL4 /// KIR2DL5A /// KIR2DL5B /// KIR2DS1 /// KIR2DS2 /// KIR2DS3 /// KIR2DS4 /// KIR3DL3 /// KIR3DL3 /// KIR3DS1 (11738374_at) / Fold change /veh KIR2DL2 /// KIR2DL4 /// KIR2DL5A /// KIR2DL5B /// KIR2DS1 /// KIR2DS2 /// KIR2DS3 /// KIR2DS4 /// KIR3DL3 /// KIR3DL3 /// KIR3DS1 (11738374_at) / RFU C1QL1 (11718748_at) / Fold change /veh C1QL1 (11718748_at) / RFU TMPRSS4 (11747572_a_at) / Fold change /veh TMPRSS4 (11747572_a_at) / RFU HAMP (11756126_x_at) / Fold change /veh HAMP (11756126_x_at) / RFU RNFT2 (11725882_a_at) / Fold change /veh RNFT2 (11725882_a_at) / RFU NR4A2 (11747474_a_at) / Fold change /veh NR4A2 (11747474_a_at) / RFU ABCC12 (11746883_a_at) / Fold change /veh ABCC12 (11746883_a_at) / RFU TMEM136 (11760407_x_at) / Fold change /veh TMEM136 (11760407_x_at) / RFU CLDN22 /// WWC2 (11732394_at) / Fold change /veh CLDN22 /// WWC2 (11732394_at) / RFU HLA-DPB1 (11760878_x_at) / Fold change /veh HLA-DPB1 (11760878_x_at) / RFU SPINT1 (11716480_a_at) / Fold change /veh SPINT1 (11716480_a_at) / RFU GAP43 (11754022_s_at) / Fold change /veh GAP43 (11754022_s_at) / RFU A4GNT (11735810_at) / Fold change /veh A4GNT (11735810_at) / RFU PRB3 (11715151_x_at) / Fold change /veh PRB3 (11715151_x_at) / RFU TUBB4B (11761932_at) / Fold change /veh TUBB4B (11761932_at) / RFU CAPN14 (11732068_a_at) / Fold change /veh CAPN14 (11732068_a_at) / RFU TMCC2 (11721928_a_at) / Fold change /veh TMCC2 (11721928_a_at) / RFU IRGQ (11745062_a_at) / Fold change /veh IRGQ (11745062_a_at) / RFU FAM174B (11720279_a_at) / Fold change /veh FAM174B (11720279_a_at) / RFU TMPRSS4 (11748680_a_at) / Fold change /veh TMPRSS4 (11748680_a_at) / RFU FAM212B (11763350_a_at) / Fold change /veh FAM212B (11763350_a_at) / RFU PLEKHG5 (11743358_a_at) / Fold change /veh PLEKHG5 (11743358_a_at) / RFU ZSCAN30 (11745921_a_at) / Fold change /veh ZSCAN30 (11745921_a_at) / RFU CMKLR1 (11741424_a_at) / Fold change /veh CMKLR1 (11741424_a_at) / RFU LOC101060620 /// MAPK8IP1 (11723275_at) / Fold change /veh LOC101060620 /// MAPK8IP1 (11723275_at) / RFU SPTSSB (11747773_x_at) / Fold change /veh SPTSSB (11747773_x_at) / RFU PRSS12 (11739890_at) / Fold change /veh PRSS12 (11739890_at) / RFU BIN1 (11741810_x_at) / Fold change /veh BIN1 (11741810_x_at) / RFU WNT11 (11732464_a_at) / Fold change /veh WNT11 (11732464_a_at) / RFU C10orf10 (11716521_a_at) / Fold change /veh C10orf10 (11716521_a_at) / RFU C5orf56 (11738089_at) / Fold change /veh C5orf56 (11738089_at) / RFU CYB561 (11721691_x_at) / Fold change /veh CYB561 (11721691_x_at) / RFU ANKRD19P (11752326_a_at) / Fold change /veh ANKRD19P (11752326_a_at) / RFU OR2T12 /// OR2T33 /// OR2T8 (11738714_s_at) / Fold change /veh OR2T12 /// OR2T33 /// OR2T8 (11738714_s_at) / RFU VCAN (11748164_a_at) / Fold change /veh VCAN (11748164_a_at) / RFU JSRP1 (11732532_at) / Fold change /veh JSRP1 (11732532_at) / RFU KRTAP10-11 (11738290_x_at) / Fold change /veh KRTAP10-11 (11738290_x_at) / RFU MYO3A (11730013_a_at) / Fold change /veh MYO3A (11730013_a_at) / RFU EBF3 (11725865_a_at) / Fold change /veh EBF3 (11725865_a_at) / RFU CAMK2N1 (11719241_x_at) / Fold change /veh CAMK2N1 (11719241_x_at) / RFU C5orf56 (11738088_a_at) / Fold change /veh C5orf56 (11738088_a_at) / RFU OLFML3 (11715873_a_at) / Fold change /veh OLFML3 (11715873_a_at) / RFU LOC100653217 /// NTM (11731650_a_at) / Fold change /veh LOC100653217 /// NTM (11731650_a_at) / RFU MAPK11 (11762145_a_at) / Fold change /veh MAPK11 (11762145_a_at) / RFU FIZ1 (11724087_x_at) / Fold change /veh FIZ1 (11724087_x_at) / RFU OASL (11726364_x_at) / Fold change /veh OASL (11726364_x_at) / RFU SOX15 (11748057_x_at) / Fold change /veh SOX15 (11748057_x_at) / RFU CD79A (11719716_a_at) / Fold change /veh CD79A (11719716_a_at) / RFU HIST1H1D (11736915_at) / Fold change /veh HIST1H1D (11736915_at) / RFU CASKIN2 (11723855_a_at) / Fold change /veh CASKIN2 (11723855_a_at) / RFU LOC730098 (11760151_x_at) / Fold change /veh LOC730098 (11760151_x_at) / RFU OR4N2 (11742367_at) / Fold change /veh OR4N2 (11742367_at) / RFU PRRT2 (11749266_a_at) / Fold change /veh PRRT2 (11749266_a_at) / RFU SNX32 (11753110_a_at) / Fold change /veh SNX32 (11753110_a_at) / RFU CDHR5 (11726645_a_at) / Fold change /veh CDHR5 (11726645_a_at) / RFU RCAN1 (11760418_a_at) / Fold change /veh RCAN1 (11760418_a_at) / RFU FAM167A (11723789_a_at) / Fold change /veh FAM167A (11723789_a_at) / RFU FAM26E (11764081_at) / Fold change /veh FAM26E (11764081_at) / RFU ISYNA1 (11749810_s_at) / Fold change /veh ISYNA1 (11749810_s_at) / RFU ACY1 (11761880_at) / Fold change /veh ACY1 (11761880_at) / RFU 11764098_at / Fold change /veh 11764098_at / RFU SAMD14 (11745864_x_at) / Fold change /veh SAMD14 (11745864_x_at) / RFU NPB (11741838_a_at) / Fold change /veh NPB (11741838_a_at) / RFU TMPRSS6 (11731388_a_at) / Fold change /veh TMPRSS6 (11731388_a_at) / RFU KRTAP10-2 (11738614_at) / Fold change /veh KRTAP10-2 (11738614_at) / RFU ARHGAP8 /// PRR5-ARHGAP8 (11727945_x_at) / Fold change /veh ARHGAP8 /// PRR5-ARHGAP8 (11727945_x_at) / RFU KRTAP5-7 /// NADSYN1 (11734609_at) / Fold change /veh KRTAP5-7 /// NADSYN1 (11734609_at) / RFU RASL12 (11751679_a_at) / Fold change /veh RASL12 (11751679_a_at) / RFU CDKN2B (11736163_a_at) / Fold change /veh CDKN2B (11736163_a_at) / RFU PRF1 (11729649_at) / Fold change /veh PRF1 (11729649_at) / RFU, ZNF638 /// ZNF638-IT1 / Fold change vs veh, ZNF638 /// ZNF638-IT1 / RFU, PANK3 / Fold change vs veh, PANK3 / RFU, SH3YL1 / Fold change vs veh, SH3YL1 / RFU, ZEB2 / Fold change vs veh, ZEB2 / RFU, NRIP1 / Fold change vs veh, NRIP1 / RFU, PTTG1IP / Fold change vs veh, PTTG1IP / RFU, CAPN2 / Fold change vs veh, CAPN2 / RFU, MED14 / Fold change vs veh, MED14 / RFU, SNORA58 / Fold change vs veh, SNORA58 / RFU, C1orf63 / Fold change vs veh, C1orf63 / RFU, LRRFIP1 / Fold change vs veh, LRRFIP1 / RFU, NDUFAF7 / Fold change vs veh, NDUFAF7 / RFU, SLC12A2 / Fold change vs veh, SLC12A2 / RFU, IBTK / Fold change vs veh, IBTK / RFU, ESF1 / Fold change vs veh, ESF1 / Fold change vs veh, TMEM50B / RFU, TAOK1 / Fold change vs veh, TAOK1 / RFU, ACBD3 / Fold change vs veh, ACBD3 / RFU, TMA16 / Fold change vs veh, TMA16 / RFU, RWDD3 / Fold change vs veh, RWDD3 / RFU, BCAT1 / Fold change vs veh, BCAT1 / RFU, EDEM3 / Fold change vs veh, EDEM3 / RFU, TMEM33 / Fold change vs veh, TMEM33 / RFU, WDR75 / Fold change vs veh, WDR75 / RFU, AHCTF1 / Fold change vs veh, AHCTF1 / RFU, TFRC / Fold change vs veh, TFRC / RFU, ZDHHC17 / Fold change vs veh, ZDHHC17 / RFU, NOM1 / Fold change vs veh, NOM1 / RFU, ARL8B / Fold change vs veh, ARL8B / RFU, ZBTB11 / Fold change vs veh, ZBTB11 / RFU, TAMM41 / Fold change vs veh, TAMM41 / RFU, KIAA1704 /// LOC100996395 / Fold change vs veh, KIAA1704 /// LOC100996395 / RFU, ING1 / Fold change vs veh, ING1 / RFU, TRMT61B / Fold change vs veh, TRMT61B / RFU, FUBP3 / Fold change vs veh, FUBP3 / RFU, TP53 / Fold change vs veh, TP53 / RFU, TNKS2 / Fold change vs veh, TNKS2 / RFU, ZFP14 / Fold change vs veh, ZFP14 / RFU, ACTR2 / Fold change vs veh, ACTR2 / RFU, PPP3R1 / Fold change vs veh, PPP3R1 / RFU, PIK3R1 / Fold change vs veh, PIK3R1 / RFU, HNRNPA1 / Fold change vs veh, HNRNPA1 / RFU, RNF170 / Fold change vs veh, RNF170 / RFU, ZNF28 / Fold change vs veh, ZNF28 / RFU, RNGTT / Fold change vs veh, RNGTT / RFU, OGT / Fold change vs veh, OGT / RFU, BRD1 / Fold change vs veh, BRD1 / RFU, MARS / Fold change vs veh, MARS / RFU, ZNF655 / Fold change vs veh, ZNF655 / RFU, FAHD1 / Fold change vs veh, FAHD1 / RFU, BDP1 / Fold change vs veh, BDP1 / RFU, LRRCC1 / Fold change vs veh, LRRCC1 / RFU, ARID1A / Fold change vs veh, ARID1A / RFU, ZNF146 / Fold change vs veh, ZNF146 / RFU, ZNF330 / Fold change vs veh, ZNF330 / RFU, GPN3 / Fold change vs veh, GPN3 / RFU, C9orf123 / Fold change vs veh, C9orf123 / RFU, N4BP2L2 / Fold change vs veh, N4BP2L2 / RFU, ARFIP1 / Fold change vs veh, ARFIP1 / RFU, FAM179B / Fold change vs veh, FAM179B / RFU, BCL10 / Fold change vs veh, BCL10 / RFU, UHRF1BP1L / Fold change vs veh, UHRF1BP1L / RFU, BET1 / Fold change vs veh, BET1 / RFU, CNOT2 / Fold change vs veh, CNOT2 / RFU, ZNF268 / Fold change vs veh, ZNF268 / Fold change vs veh, ZNF507 / RFU, DGCR2 / Fold change vs veh, DGCR2 / RFU, WDSUB1 / Fold change vs veh, WDSUB1 / Fold change vs veh, HSP90B1 /// MIR3652 / RFU, ADSS / Fold change vs veh, ADSS / RFU, GK / Fold change vs veh, GK / RFU, ZNF148 / Fold change vs veh, ZNF148 / RFU, TAF9 / Fold change vs veh, TAF9 / RFU, SLC1A5 / Fold change vs veh, SLC1A5 / RFU, SLMO2 / Fold change vs veh, SLMO2 / RFU, ABCC4 / Fold change vs veh, ABCC4 / RFU, LOC101060439 /// RAP1B / Fold change vs veh, LOC101060439 /// RAP1B / RFU, RFX7 / Fold change vs veh, RFX7 / RFU, GTPBP10 / Fold change vs veh, GTPBP10 / RFU, CNEP1R1 / Fold change vs veh, CNEP1R1 / RFU, BIVM-ERCC5 /// ERCC5 / Fold change vs veh, BIVM-ERCC5 /// ERCC5 / RFU, ILF3 / Fold change vs veh, ILF3 / RFU 11762660_at / Fold change /veh 11762660_at / RFU VCAN (11757783_s_at) / Fold change /veh VCAN (11757783_s_at) / RFU DDX43 (11728927_at) / Fold change /veh DDX43 (11728927_at) / RFU KRT8 (11758188_x_at) / Fold change /veh KRT8 (11758188_x_at) / RFU NKD1 (11759106_at) / Fold change /veh NKD1 (11759106_at) / RFU SRD5A1 (11742802_a_at) / Fold change /veh SRD5A1 (11742802_a_at) / RFU TPSAB1 /// TPSB2 (11721975_s_at) / Fold change /veh TPSAB1 /// TPSB2 (11721975_s_at) / RFU GSTM3 (11746129_a_at) / Fold change /veh GSTM3 (11746129_a_at) / RFU IL23R (11737362_x_at) / Fold change /veh IL23R (11737362_x_at) / RFU TMEM51 (11727254_a_at) / Fold change /veh TMEM51 (11727254_a_at) / RFU PIWIL2 (11732686_x_at) / Fold change /veh PIWIL2 (11732686_x_at) / RFU ORM1 (11744905_x_at) / Fold change /veh ORM1 (11744905_x_at) / RFU CCDC152 (11743942_at) / Fold change /veh CCDC152 (11743942_at) / RFU ECM1 (11717891_a_at) / Fold change /veh ECM1 (11717891_a_at) / RFU IL23R (11748794_a_at) / Fold change /veh IL23R (11748794_a_at) / RFU TNFAIP8L3 (11732012_x_at) / Fold change /veh TNFAIP8L3 (11732012_x_at) / RFU MBOAT4 (11741988_at) / Fold change /veh MBOAT4 (11741988_at) / RFU 11764193_at / Fold change /veh 11764193_at / RFU TMEM53 (11763286_at) / Fold change /veh TMEM53 (11763286_at) / RFU MAGEB2 (11727129_at) / Fold change /veh MAGEB2 (11727129_at) / RFU TMEM200A (11744735_a_at) / Fold change /veh TMEM200A (11744735_a_at) / RFU CCDC152 (11751479_a_at) / Fold change /veh CCDC152 (11751479_a_at) / RFU FAM211A (11726209_a_at) / Fold change /veh FAM211A (11726209_a_at) / RFU RGS16 (11746705_a_at) / Fold change /veh RGS16 (11746705_a_at) / RFU VCAN (11755009_s_at) / Fold change /veh VCAN (11755009_s_at) / RFU RHOB (11743442_s_at) / Fold change /veh RHOB (11743442_s_at) / RFU RGS16 (11720943_a_at) / Fold change /veh RGS16 (11720943_a_at) / RFU RGS16 (11720944_at) / Fold change /veh RGS16 (11720944_at) / RFU, VPS4B / Fold change vs veh, VPS4B / RFU, CREB1 / Fold change vs veh, CREB1 / RFU, DNAJC13 / Fold change vs veh, DNAJC13 / RFU, GNAQ / Fold change vs veh, GNAQ / RFU, CDK5R1 / Fold change vs veh, CDK5R1 / RFU, ZRANB3 / Fold change vs veh, ZRANB3 / RFU, CUL4A / Fold change vs veh, CUL4A / RFU, CCNY / Fold change vs veh, CCNY / RFU, UFL1 / Fold change vs veh, UFL1 / RFU, COG3 / Fold change vs veh, COG3 / RFU, DIAPH2 / Fold change vs veh, DIAPH2 / RFU, SKA2 / Fold change vs veh, SKA2 / RFU, AFF3 / Fold change vs veh, AFF3 / RFU, LMF1 / Fold change vs veh, LMF1 / RFU, IPO11 / Fold change vs veh, IPO11 / RFU, DFFB / Fold change vs veh, DFFB / RFU, FOXP1 / Fold change vs veh, FOXP1 / RFU, CARD8 / Fold change vs veh, CARD8 / RFU, STRN3 / Fold change vs veh, STRN3 / RFU, ADK / Fold change vs veh, ADK / RFU, RASSF2 / Fold change vs veh, RASSF2 / RFU, WIPF1 / Fold change vs veh, WIPF1 / RFU, LARP1B / Fold change vs veh, LARP1B / RFU, RASA1 / Fold change vs veh, RASA1 / RFU, RB1 / Fold change vs veh, RB1 / RFU, PPFIA1 / Fold change vs veh, PPFIA1 / RFU, MAT2A / Fold change vs veh, MAT2A / RFU, CCT5 / Fold change vs veh, CCT5 / RFU, WDR92 / Fold change vs veh, WDR92 / RFU, CUX1 / Fold change vs veh, CUX1 / RFU, TTC7A / Fold change vs veh, TTC7A / RFU, TMEM135 / Fold change vs veh, TMEM135 / RFU, DEPTOR / Fold change vs veh, DEPTOR / RFU, CPM / Fold change vs veh, CPM / RFU, DNAJB6 / Fold change vs veh, DNAJB6 / RFU, CACNA2D3 / Fold change vs veh, CACNA2D3 / RFU, DTX4 / Fold change vs veh, DTX4 / RFU, TFCP2 / Fold change vs veh, TFCP2 / RFU, GMCL1 /// GMCL1P1 / Fold change vs veh, GMCL1 /// GMCL1P1 / RFU, AEBP2 / Fold change vs veh, AEBP2 / RFU, SNHG1 /// SNORD22 /// SNORD25 /// SNORD26 /// SNORD27 /// SNORD28 /// SNORD29 /// SNORD31 / Fold change vs veh, SNHG1 /// SNORD22 /// SNORD25 /// SNORD26 /// SNORD27 /// SNORD28 /// SNORD29 /// SNORD31 / Fold change (Aza/veh), C12orf56 (ProbeSet 11735607_a_at) / Fold change (ACY-1035/veh), C12orf56 (ProbeSet 11735607_a_at) / Fold change (Aza/veh), FGFR1OP (ProbeSet 11751329_s_at) / Fold change (ACY-1035/veh), FGFR1OP (ProbeSet 11751329_s_at) / Fold change (Aza/veh), VPS36 (ProbeSet 11739960_a_at) / Fold change (ACY-1035/veh), VPS36 (ProbeSet 11739960_a_at) / RFU SYPL1 (11715823_x_at) / Fold change /veh SYPL1 (11715823_x_at) / RFU IGFBP7 (11715501_s_at) / Fold change /veh IGFBP7 (11715501_s_at) / RFU REEP3 (11722064_at) / Fold change /veh REEP3 (11722064_at) / RFU IGLL1 (11728026_x_at) / Fold change /veh IGLL1 (11728026_x_at): dose or concentration left out as unconfirmed
Conditions: ProbeSet 11721611_a_at; LIST D

Nc1ccc(-c2cccs2)cc1NC(=O)c1ccc2c(c1)cc(C1CC1)n2CCN1CCOCC1 [ACY-1035]
RFU, IPO11: 82.15 RFU
